Measurements from ChEMBL document CHEMBL1201862, “PubChem BioAssay data set” (2004).
Calls of active or inactive are those of the source. For most assays here, no stated cut-off is given here; in the data, actives have a measured IC50 and inactives only a lower limit.

Key:
Vero = experiment: viability of Vero cells under compound – cytotoxicity control for flavivirus capping enzyme inhibitors (AID 588742); assay type: functional; details: Chlorocebus sabaeus
[1] = molecular target: T1, Sentrin-specific protease 8 (Homo sapiens, UniProt Q96LD8); assay type: functional;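 further: luminescence read-out of SENP8 inhibition, dose-response confirmation following an ultra-high-throughput screen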
T1 sequence (Q96LD8 whole entry): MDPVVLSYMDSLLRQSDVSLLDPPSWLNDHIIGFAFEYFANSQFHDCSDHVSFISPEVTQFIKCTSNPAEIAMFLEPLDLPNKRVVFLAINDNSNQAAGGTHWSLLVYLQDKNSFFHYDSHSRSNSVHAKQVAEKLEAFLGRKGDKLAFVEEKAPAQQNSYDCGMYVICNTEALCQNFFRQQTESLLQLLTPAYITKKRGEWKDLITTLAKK

[2] = molecular target: T2, Histone-lysine N-methyltransferase NSD2 (Homo sapiens, UniProt O96028); assay type: biochemical
T2 sequence (O96028 whole entry): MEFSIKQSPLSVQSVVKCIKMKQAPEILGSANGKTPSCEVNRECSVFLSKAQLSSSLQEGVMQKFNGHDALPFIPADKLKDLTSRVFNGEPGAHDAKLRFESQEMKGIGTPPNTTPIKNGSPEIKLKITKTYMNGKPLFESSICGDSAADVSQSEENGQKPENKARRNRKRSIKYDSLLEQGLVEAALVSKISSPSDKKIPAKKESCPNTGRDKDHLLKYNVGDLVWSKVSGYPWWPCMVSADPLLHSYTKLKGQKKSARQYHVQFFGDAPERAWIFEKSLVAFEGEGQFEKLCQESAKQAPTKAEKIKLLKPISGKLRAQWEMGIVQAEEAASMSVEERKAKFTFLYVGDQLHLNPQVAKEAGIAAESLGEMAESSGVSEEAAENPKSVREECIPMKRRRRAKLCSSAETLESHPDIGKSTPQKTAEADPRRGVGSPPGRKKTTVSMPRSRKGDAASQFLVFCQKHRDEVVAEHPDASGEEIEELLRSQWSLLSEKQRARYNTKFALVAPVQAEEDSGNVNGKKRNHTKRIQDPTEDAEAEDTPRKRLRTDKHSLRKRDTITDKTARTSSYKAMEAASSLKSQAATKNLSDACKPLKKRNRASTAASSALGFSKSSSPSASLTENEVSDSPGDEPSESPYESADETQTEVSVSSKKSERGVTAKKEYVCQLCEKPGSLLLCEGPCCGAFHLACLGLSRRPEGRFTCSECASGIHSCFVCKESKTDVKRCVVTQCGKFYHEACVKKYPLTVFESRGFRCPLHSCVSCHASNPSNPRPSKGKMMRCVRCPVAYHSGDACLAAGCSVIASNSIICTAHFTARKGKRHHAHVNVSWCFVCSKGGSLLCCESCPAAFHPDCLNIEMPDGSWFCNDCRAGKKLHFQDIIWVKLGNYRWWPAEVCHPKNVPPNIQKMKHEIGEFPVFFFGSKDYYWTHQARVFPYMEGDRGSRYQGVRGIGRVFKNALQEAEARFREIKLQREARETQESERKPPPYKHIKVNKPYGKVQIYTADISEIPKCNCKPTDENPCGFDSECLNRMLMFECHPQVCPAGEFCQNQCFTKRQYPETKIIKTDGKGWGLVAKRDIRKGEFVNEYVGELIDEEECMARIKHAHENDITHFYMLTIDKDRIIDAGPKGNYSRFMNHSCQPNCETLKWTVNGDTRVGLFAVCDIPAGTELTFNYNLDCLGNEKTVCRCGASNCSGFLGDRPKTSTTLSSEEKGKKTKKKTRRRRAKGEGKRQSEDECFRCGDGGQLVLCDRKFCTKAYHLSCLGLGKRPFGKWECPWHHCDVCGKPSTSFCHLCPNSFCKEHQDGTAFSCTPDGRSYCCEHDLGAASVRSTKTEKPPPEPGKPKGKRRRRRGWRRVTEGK

[3] = molecular target: T3, Sentrin-specific protease 7 (Homo sapiens, UniProt Q9BQF6); experiment: inhibition of human SENP7 cleavage activity – biochemical, luminescence, SAR follow-up (AID 504497); assay type: functional
T3 sequence (Q9BQF6 whole entry): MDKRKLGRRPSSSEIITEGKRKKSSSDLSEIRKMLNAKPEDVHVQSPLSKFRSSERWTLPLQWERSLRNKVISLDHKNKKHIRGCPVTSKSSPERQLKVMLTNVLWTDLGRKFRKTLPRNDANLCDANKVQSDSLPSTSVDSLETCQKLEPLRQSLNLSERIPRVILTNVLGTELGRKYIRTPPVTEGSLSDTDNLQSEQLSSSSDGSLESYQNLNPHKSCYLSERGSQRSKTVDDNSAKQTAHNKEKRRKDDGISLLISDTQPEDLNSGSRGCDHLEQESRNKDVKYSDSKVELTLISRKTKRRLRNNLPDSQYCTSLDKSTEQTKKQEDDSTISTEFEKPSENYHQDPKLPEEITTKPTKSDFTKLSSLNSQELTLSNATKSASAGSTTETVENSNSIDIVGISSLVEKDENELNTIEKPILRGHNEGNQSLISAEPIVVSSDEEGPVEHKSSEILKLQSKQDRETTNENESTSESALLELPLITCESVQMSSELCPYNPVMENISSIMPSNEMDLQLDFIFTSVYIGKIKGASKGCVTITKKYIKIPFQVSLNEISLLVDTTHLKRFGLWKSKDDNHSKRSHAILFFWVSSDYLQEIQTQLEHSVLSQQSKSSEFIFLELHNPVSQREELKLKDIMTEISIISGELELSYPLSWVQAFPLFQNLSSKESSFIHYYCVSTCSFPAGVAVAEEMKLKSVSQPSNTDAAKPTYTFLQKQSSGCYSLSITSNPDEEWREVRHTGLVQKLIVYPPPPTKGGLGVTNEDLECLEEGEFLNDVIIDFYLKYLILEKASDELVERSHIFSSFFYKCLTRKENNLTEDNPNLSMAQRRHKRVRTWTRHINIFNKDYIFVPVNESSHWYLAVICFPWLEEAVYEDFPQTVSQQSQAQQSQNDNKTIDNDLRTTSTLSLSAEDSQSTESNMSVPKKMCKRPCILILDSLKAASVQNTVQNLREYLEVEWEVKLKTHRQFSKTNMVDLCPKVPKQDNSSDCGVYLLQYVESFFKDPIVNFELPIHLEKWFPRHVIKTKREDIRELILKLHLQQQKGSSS

Caspase-3 = molecular target: T4, Caspase-3 (Homo sapiens, UniProt P42574); experiment: SAR Analysis of small molecule inhibitors of Sentrin-specific proteases (SENPs) using a Caspase-3 Selectivity assay. [Related pubchem assays (depositor defined):AID2540, AID2599, AID434973, AID489001]; assay type: functional
T4 sequence (P42574 whole entry): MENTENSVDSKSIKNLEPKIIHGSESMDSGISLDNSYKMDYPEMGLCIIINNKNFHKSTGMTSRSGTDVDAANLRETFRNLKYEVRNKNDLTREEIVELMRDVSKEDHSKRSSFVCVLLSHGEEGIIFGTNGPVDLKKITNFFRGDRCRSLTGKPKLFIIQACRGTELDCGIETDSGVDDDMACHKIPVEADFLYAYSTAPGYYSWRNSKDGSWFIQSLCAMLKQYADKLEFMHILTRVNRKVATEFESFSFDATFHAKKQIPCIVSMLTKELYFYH

Structure (SMILES) | CC50 (Vero) | IC50 [1] | AC50 [2] | IC50 [3] | IC50 (Caspase-3)
COc1ccc(/C=N/Nc2cc(N3CCCC3)nc(N3CCCC3)n2)cc1 | 24.7 µM (active) | 7.52 µM (active) | 2.01 µM (active) |  | 
Oc1ccc(/C=N/Nc2cc(N3CCCC3)nc(N3CCCC3)n2)cc1 |  | 22.1 µM (active) |  | > 99 µM (inactive) | > 99 µM (inactive)
